Each structure is given as a SMILES string. Like-named read-outs stand apart in the source and are kept apart here.

In one data set the test system is T47D (ER+). Description: MTT proliferation assay, T47D. The format is cell-based. The settings on record: Homo sapiens. The method, then: Cells (n=2000/well) were seeded in 96 well plates with drug or vehicle (DMSO) on D1 and after 48 h the cell number was determined by MTT assay.
On the technique in general: Formazan colour is commonly taken as a measure of viable cells.

The subject of another data set is T47D (ER+ line). Kind of data set: Western blot densitometry, T47D (Example 17). Type of data set: cell-based. Set-up: % Reduction, Total Akt / % Reduction, Phospho Akt / % Reduction, ER-α: concentration or dose not given beside the values. Conditions: 24 or 48 hours. The protocol:
An ER^+ line, T47D, was treated with M1 or ritonavir for 24 or 48 hours. The cells were grown to confluence and treated with drug or DMSO vehicle. The cells were scraped on ice into RIPA buffer containing protease inhibitors including MG-132 and phosphatase inhibitors as published (see Srirangam et al. Clincal Ca Research 2006). The RIPA lysate was subjected to electrophoresis, blotted and probed with the appropriate antibodies.
For orientation: Immunoblotting shows a protein as a band on a membrane.

Data set [1] is described as follows: Tolerability in nude mice (MTD, weight). Type of data set: in vivo. The settings on record: for MTD: female, nude (nu-/nu-), mouse, in vivo. The method, then: Six-8 weeks old female nude mice (nu^−/nu^−) (Charles River Laboratories International, Inc., MA) were injected into a right mammary fat pad with 1×10^6 log-phase MDA-MB-231. Mice were monitored bi-weekly for weight and tumor growth. When tumors reached a volume of approximately 30-40 mm^3 (calculated according to the formula: volume (mm^3)=(length)(width)^2/2), mice were randomized into three groups (each group n=10). One group of mice was injected daily i.p. with ritonavir (20 mg/Kg in 100 μl of ethanol-Tween 80), the second with M1 (20 mg/Kg in 100 μl of ethanol-Tween 80), and the third with vehicle only (100 μl of ethanol-Tween 80). […] Mice were weighted and their tumors were measured twice a week for the entire duration of the treatment (42 days).

Another data set deals with T47D. Kind of data set: Western blot protein depletion, T47D (Example 4). The format is cell-based. The protocol:
Breast cancer cell lines MDA-MB-231, T47D and SKBR3 were used to study depletion of Hsp90 by M1 and ritonavir. Cells were incubated for 48 hours with 1) ritonavir (R) at its IC50 (20 μM for T47D and 40 μM for MDA-MB-231); 2) M1 at ritonavir's IC50; or DMSO (control). Cell extracts were made according to the method of Srirangam et al., Clin Cancer Res. 2006 Mar. 15; 12(6):1883-96. Briefly, nearly confluent cell monolayers were treated with drug or vehicle (DMSO) for 24 or 48 h. Cells were washed with PBS on ice and scraped in a RIPA buffer containing protease inhibitors including MG-132 and phosphatase inhibitors. The cell lysate protein content was determined by μBCA and equal amounts of protein were loaded per lane. Gel electrophoresis by SDS PAGE was performed with equal protein loading per lane (usually 30 μg) and the separated proteins were transferred to 0.45 μm nitrocellulose filters. The transfer was verified by Ponceau stain of the nitrocellulose filters. The filters were probed by chemiluminescent blotting and then exposed to X-ray film. The signal from the protein of interest was normalized to the GAPDH signal. Student's t-test was used to determine the significance of differences.

A further data set has as its system T47D cell line. Kind of data set: Induction of reactive oxygen species, flow cytometry. Conditions: 30 μM, 24 hours, FIG. 3. Type of data set: cell-based. The protocol:
Production of ROS can be analyzed using flow cytometry. For example, induction of ROS, including peroxide and superoxide, can be studied in cancer cell line. Cells can be seeded in 6 well plates (˜80,000 cells/well) using the appropriate medium, and exposed to a drug for 24 hours. Subsequently, the medium can be removed from the wells and the cells can then be exposed to DHE (2 μM in PBS) or Carboxy-H2-DCFDA (10 μM in PBS) for 30 minutes. Cells can then be trypsinized, washed two times with PBS and analyzed by flow cytometry. Additional cells can be exposed to H2O2 (250 μM) for 2 hours as a positive control for ROS production. See Example 3.
Induction of Reactive Oxygen Species (ROS), including peroxide and superoxide, were studied in the T47D cell line. Cells were seeded in 6 well plates (˜80,000 cells/well) using the appropriate medium, (DMEM with 10% FBS, 1% L-Glu, 1% Sodium Piruvate, and 1% Pen-strep) and exposed to ritonavir (30 μM) and M1 (30 μM) for 24 hours. Subsequently, the medium was removed from the wells and the cells were exposed to DHE (2 μM in PBS) or Carboxy-H2-DCFDA (10 μM in PBS) for 30 minutes. Cells were then trypsinized, washed two times with PBS and analyzed by flow cytometry. Additional cells were exposed to H2O2 (250 μM) for 2 hours as a positive control for ROS production.
For orientation: Flow cytometry measures light scatter and fluorescence of single cells or particles in a stream.

Data set [2] deals with MDA-MB-231 (triple negative). Kind of data set: Annexin V-FITC/PI apoptosis flow cytometry, MDA-MB-231. Type of data set: cell-based. The method, then:
Induction of apoptosis was studied in a MCF7 breast cancer cell line. Apoptotic cells were detected using an Annexin V-FITC/PI apoptosis detection kit (Oncagene, Boston, Mass.). After plating at 5×10^5 in a 100-mm plate, the cells were grown for 48 hours in complete medium in presence of M1, ritonavir, or vehicle (DMSO). The culture and drug exposure conditions for the apoptosis assays were done across a range of 5 to 60 μmol/L M1 and ritonavir. Cells were harvested by trypsin treatment, washed with complete medium to neutralize the trypsin, and stained with PI and Annexin V-FITC. A total of 1×10^4 events were analyzed per assay by FACScan analysis using CellQuest software (Becton Dickinson). Replicate assays were done to confirm the results.
A similar study was performed using T47D (ER+), MDA-MB-231 (triple negative) and SKBR3 (ER−/Her2+) cell lines were performed as above.

For data set [3], the system named is non-transformed human breast epithelial line MCF10A. Description: MTT proliferation assay, MCF10A. The format is cell-based. Conditions: MCF-10A, 48 h. The protocol:
M1 inhibition of proliferation of MCF7, T47D and MDA-MB-231 cell lines was studied. Cells (n=2000/well) were seeded in 96 well plates with drug or vehicle (DMSO) on D1 and after 48 h the cell number was determined by MTT assay. Each assay was performed with 8 measurements for each data point (See FIG. 1, wherein graph A corresponds to MCF7, graph B corresponds to T47D, and graph C corresponds to MDA-MB-231).
M1 inhibition of proliferation of MCF7 (ER+), T47D (ER+), MDA-MB-231 (triple negative), SKBR3 (ER−/Her2+), and the non-transformed mammary line MCF10A were studied. Cells (n=2000/well) were seeded in 96 well plates with drug or vehicle (DMSO) on D1 and after 48 h the cell number was determined by MTT assay.

The MTD is the largest dose that counted as tolerated. As for `CC(C)c1nc(CN(C)C(=O)N[C@H](C(=O)N[C@@H](Cc2ccccc2)C[C@H](O)[C@H](Cc2ccccc2)NC(=O)OCc2cncs2)C(C)C)cs1` [ritonavir], the IC50 with T47D (ER+) (48 h, read-out: IC50, proliferation) stood at 23 µM. Also, the IC50 in the data set with T47D (ER+) (as quoted in Example 4, read-out: IC50) was 20 µM. For the same compound, in the data set with T47D (ER+ line), the “% Reduction, CDK2” value was found to be 49.91%; the “% Reduction, CDK4” value is listed as 23.99%; the “% Reduction, CDK6” value is 11.64%; the “% Reduction, Cyclin D1” value stood at 42.87%. Moreover, in the data set on T47D (ER+ line), the “% Reduction, ER-α” value came out at 33.24%; the “% Reduction, Hsp90” value came to 48.3%; the “% Reduction, Phospho Akt” value is listed as 9.98%; the “% Reduction, Total Akt” value worked out at 5.04%. In addition, the Animal weight loss result in data set [1] (20 mg/Kg daily i.p., 42 days, FIG. 5C) is “did not occur”. Moreover, the MTD in data set [1] (nude mice, read-out: maximum tolerated dose (MTD)) turned out to be 40 mg/kg. For the same compound, in the data set with T47D (P<0.05), the “G1/S regulatory protein Cyclin D1” value is recorded as “reduced”. Further, in the data set with T47D cell line, the ROS production entry is reported as “does not”. The “fraction of apoptotic cells” value in data set [2] turned out to be 20%. Further, the IC50 in data set [3] (Example 1, MTT after 48 h) was determined as 35 µM. In addition, in data set [3] (Example 6, MTT after 48 h), the IC50 was 31 µM.
As to `CC(C)c1nc(CN(C)C(=O)NC(C(=O)NC(Cc2ccccc2)CC(O)C(N)Cc2ccccc2)C(C)C)cs1` (centres unmarked) [M1, desthiazolyl ritonavir], the IC50 in the data set on T47D (ER+) (Example 6, MTT after 48 h, read-out: IC50, proliferation) was 10 µM. In addition, in the data set with T47D (ER+ line), the “% Reduction, CDK2” value was determined as 51.02%; the “% Reduction, CDK4” value was determined as 2.23%; the “% Reduction, CDK6” value is given as 21.05%; the “% Reduction, Cyclin D1” value is given as 45.64%. For the same compound, in the data set with T47D (ER+ line), the “% Reduction, ER-α” value stood at 56.41%; the “% Reduction, Hsp90” value turned out to be 82.70%; the “% Reduction, Phospho Akt” value is listed as 56.36%; the “% Reduction, Total Akt” value amounted to 56.57%. Moreover, the MTD in data set [1] came out at 20 mg/kg. Further, the “reducing Hsp90 levels” value in the data set with T47D (48 hours, at ritonavir's IC50 (20 μM)) was “more potent than ritonavir”. Moreover, in the data set with T47D (P<0.05), the “G1/S regulatory protein Cyclin D1” value is reported as “reduced”. Also, in the data set on T47D (versus ritonavir, P<0.05), the “reducing ER alpha” value is reported as “more potent”; the “reducing total Akt, phospho-Akt, GSK3beta, c-src, and survivin” value is “more potent”. In addition, in the data set on T47D cell line, the ROS production entry is listed as “induces ROS production”. For the same compound, the “fraction of apoptotic cells” value in data set [2] amounted to 40%. Also, the IC50 in data set [3] (Example 1, MTT after 48 h) is 50 µM. The same compound gave an IC50 in data set [3] (Example 6, MTT after 48 h) of 45 µM.

The record behind these values is patent US8501792B2, “Treating cancer with desthiazolyl ritonavir” (priority 2008, dated 2013).
